We go through seven molecules from US9409905B2, “Antibacterial compounds and methods for use” (PTC THERAPEUTICS, INC., priority 2011, dated 2016).

The structures appear in SMILES notation. Values after ≈ are worked out from the molar mass of the structure shown.

In experiment [1] the test system is Escherichia coli (E. coli) BAS849. Nature of the experiment: Antibacterial activity, microbroth dilution MIC (Table 1). As to conditions: microbroth dilution, super sensitive Gram-negative E. coli BAS849, read-out: MIC, BAS849. The format is cell-based. The essentials: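 Lowest concentration stopping macroscopically visible growth under test conditions, by broth microdilution, defines the MIC (μg/mL).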
Background: In broth dilution the organism is exposed to a series of concentrations in liquid medium.

The test system of experiment [2] is Staphylococcus aureus (S. aureus) 29213. The experiment is described as above. As to conditions: microbroth dilution, Gram-positive S. aureus 29213, read-out: MIC, 29213. It is filed as cell-based. In short, it runs like this:
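Values are MICs (μg/mL): the smallest drug amount at which macroscopically visible bacterial growth is absent under assay conditions, from a microdilution method in broth.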

Experiment [3] concerns E. coli 25922. The experiment is described as above. The format is cell-based, Escherichia coli. As to conditions: Escherichia coli; microbroth dilution; control Gram-negative E. coli 25922 strain; read-out: MIC, 25922. The essentials:
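Broth microdilution against S. aureus 29213, E. coli 25922 and hypersensitive E. coli BAS849. MIC in μg/mL is the lowest drug concentration preventing macroscopically visible growth under test conditions.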

Experiment [4] deals with E. coli LZ3111. The experiment can be described thus: Antibacterial activity, MIC, quinolone resistant strain (Table 2). It is filed as cell-based. As to conditions: Escherichia coli, LZ3111, read-out: MIC LZ3111. The essentials: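 Lowest concentration giving no macroscopically visible growth was taken as the MIC (μg/mL) after microbroth dilution testing.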
Experiment [5] concerns E. coli ELZ4000. Nature of the experiment: Antibacterial activity, MIC, multi-drug resistant clinical isolate (Table 3). The format is cell-based. As to conditions: Escherichia coli, ELZ4000, read-out: MIC ELZ4000. The text has this: (§1) The antibacterial activity from a microbroth dilution method may be presented as the minimum inhibitory concentration (MIC in μg/mL). The MIC value is the lowest concentration of drug which prevents macroscopically visible growth under test conditions.
(§2) Antibacterial activity of test compounds against E. coli ELZ4000 and E. coli ELZ4251 multi-drug resistant clinical isolates is shown in Table 3.

The test system of experiment [6] is E. coli ELZ4251. The description is as above. As to conditions: Escherichia coli. The format is cell-based.
Excerpt: as §1, §2

The subject of experiment [7] is Pseudomonas aeruginosa (P. aeruginosa) 27853. Nature of the experiment: Antibacterial activity, MIC (Table 5). It is filed as cell-based. As to conditions: P. aeruginosa 27853, read-out: MIC, 27853. The essentials: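 MIC in μg/mL from broth microdilution; endpoint is the lowest drug level giving no visible growth.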
Experiment [8] relates to Acinetobacter baumannii (A. baumannii) BAA747. The experiment can be described thus: Antibacterial activity, MIC (Table 4). The format is cell-based. As to conditions: A. baumannii BAA747, read-out: MIC, BAA747. In short, it runs like this: (§3)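 The resistant panel comprises multi-drug resistant clinical isolates. All strains were tested by microbroth dilution, with the MIC in μg/mL taken as the lowest concentration that prevented macroscopically visible growth.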

For experiment [9], the system named is Klebsiella pneumoniae (K. pneumoniae) 35657. The experiment can be described thus: Antibacterial activity, MIC (Table 4). The format is cell-based. As to conditions: K. pneumoniae 35657, read-out: MIC, 35657. In short, it runs like this:
as §3

The subject of experiment [10] is A. baumannii MXX2240. Nature of the experiment: Antibacterial activity, MIC, resistant strain (Table 4). The format is cell-based. As to conditions: Acinetobacter baumannii, MXX2240; resistant A. baumannii MMX2240, multi-drug resistant clinical isolate; read-out: MIC, MMX2240. In short, it runs like this:
as §3

Experiment [11] relates to K. pneumoniae MXX1232. The experiment is described as above. As to conditions: Klebsiella pneumoniae, MXX1232; resistant K. pneumoniae MMX1232, multi-drug resistant clinical isolate; read-out: MIC, MMX1232. It is filed as cell-based. In short, it runs like this: as §3

`CCc1c(-c2ccc3c(c2)cc(CN2CCCC(O)C2)n3C)[nH]c(=O)c(C(=O)O)c1O` (stereo not shown) [Cpd 255, 5-ethyl-4-hydroxy-6-(2-((3-hydroxypiperidin-1-yl)methyl)-1-methyl-1H-indol-5-yl)-2-oxo-1,2-dihydropyridine-3-carboxylic acid]: the minimum inhibitory concentration (MIC) (as a rule, the lowest concentration found to suppress growth) in experiment [1] is under 1 µg/mL; in experiment [2] it was 3.5 to 12.5 µg/mL (≈ 8.23 to 29.4 µM); in experiment [3], 1 to 3.5 µg/mL (≈ 2.35 to 8.23 µM); in experiment [4], 12.5 to 150 µg/mL (≈ 29.4 to 353 µM); in experiment [5], 12.5 to 150 µg/mL (≈ 29.4 to 353 µM); in experiment [6], 12.5 to 150 µg/mL (≈ 29.4 to 353 µM). Further, in experiment [7], the minimum inhibitory concentration (MIC) was 12.5 to 150 µg/mL (≈ 29.4 to 353 µM).
As for `CCc1c(-c2ccc3c(c2)cc(CN(C)C2CCNCC2)n3C)[nH]c(=O)c(C(=O)O)c1O` [Cpd 261, 5-ethyl-4-hydroxy-6-(1-methyl-2-((methyl(piperidin-4-yl)amino)methyl)-1H-indol-5-yl)-2-oxo-1,2-dihydropyridine-3-carboxylic acid], the MIC in [1] was 1 to 3.5 µg/mL (≈ 2.28 to 7.98 µM); in experiment [2], 12.5 to 150 µg/mL (≈ 28.5 to 342 µM); in [3] it was 3.5 to 12.5 µg/mL (≈ 7.98 to 28.5 µM); in experiment [4], 3.5 to 12.5 µg/mL (≈ 7.98 to 28.5 µM); in experiment [5], 12.5 to 150 µg/mL (≈ 28.5 to 342 µM); in experiment [6] it was 12.5 to 150 µg/mL (≈ 28.5 to 342 µM). Further, in [7], the MIC lay in the range of 12.5 to 150 µg/mL (≈ 28.5 to 342 µM).
Regarding `CCc1c(-c2ccc3c(c2)cc(CN(C)C2CCCNC2)n3C)[nH]c(=O)c(C(=O)O)c1O` (stereo not shown) [Cpd 262, 5-ethyl-4-hydroxy-6-(1-methyl-2-((methyl(piperidin-3-yl)amino)methyl)-1H-indol-5-yl)-2-oxo-1,2-dihydropyridine-3-carboxylic acid], the MIC is 1 to 3.5 µg/mL (≈ 2.28 to 7.98 µM) in [1]; 12.5 to 150 µg/mL (≈ 28.5 to 342 µM) in [2]; 3.5 to 12.5 µg/mL (≈ 7.98 to 28.5 µM) in experiment [3]; 3.5 to 12.5 µg/mL (≈ 7.98 to 28.5 µM) in [4]; 12.5 to 150 µg/mL (≈ 28.5 to 342 µM) in experiment [5]; 12.5 to 150 µg/mL (≈ 28.5 to 342 µM) in experiment [6]. Also, in experiment [7], the minimum inhibitory concentration (MIC) lay in the range of 12.5 to 150 µg/mL (≈ 28.5 to 342 µM).
As for `CCc1c(-c2ccc3c(c2)cc(CN(CC2CC2)C2CCNCC2)n3C)[nH]c(=O)c(C(=O)O)c1O` [Cpd 264, 6-(2-(((cyclopropylmethyl)(piperidin-4-yl)amino)methyl)-1-methyl-1H-indol-5-yl)-5-ethyl-4-hydroxy-2-oxo-1,2-dihydropyridine-3-carboxylic acid], the minimum inhibitory concentration (MIC) in [1] was in the range of 1 to 3.5 µg/mL (≈ 2.09 to 7.31 µM); in [2], 3.5 to 12.5 µg/mL (≈ 7.31 to 26.1 µM); in experiment [3] it was 3.5 to 12.5 µg/mL (≈ 7.31 to 26.1 µM); in [4], 1 to 3.5 µg/mL (≈ 2.09 to 7.31 µM); in experiment [5], 12.5 to 150 µg/mL (≈ 26.1 to 313 µM); in experiment [6], 3.5 to 12.5 µg/mL (≈ 7.31 to 26.1 µM). Also, in experiment [7], the minimum inhibitory concentration (MIC) lay within 12.5 to 150 µg/mL (≈ 26.1 to 313 µM).
Take `CCc1c(-c2ccc3c(c2)cc(CN2C[C@H]4CC[C@@H](N(C)C)[C@H]4C2)n3C)[nH]c(=O)c(C(=O)O)c1O` [Cpd 278, 6-(2-(((3aR,4R,6aS)-4-(dimethylamino)hexahydrocyclopenta[c]pyrrol-2(1H)-yl)methyl)-1-methyl-1H-indol-5-yl)-5-ethyl-4-hydroxy-2-oxo-1,2-dihydropyridine-3-carboxylic acid]: the minimum inhibitory concentration (MIC) in experiment [1] is under 1 µg/mL; in experiment [2], 3.5 to 12.5 µg/mL (≈ 7.31 to 26.1 µM); in experiment [3], 1 to 3.5 µg/mL (≈ 2.09 to 7.31 µM); in [4], 3.5 to 12.5 µg/mL (≈ 7.31 to 26.1 µM); in [5] it was 12.5 to 150 µg/mL (≈ 26.1 to 313 µM); in [6], 12.5 to 150 µg/mL (≈ 26.1 to 313 µM). The MIC in experiment [7] lay in the range of 12.5 to 150 µg/mL (≈ 26.1 to 313 µM).
On to `CCc1cc(C(=O)O)c(=O)[nH]c1-c1ccc2sccc2c1` [Cpd 366, 6-(benzo[b]thiophen-5-yl)-5-ethyl-2-oxo-1,2-dihydropyridine-3-carboxylic acid], for which the minimal inhibitory concentration (MIC) in experiment [1] is under 1 µg/mL; in [2], 12.5 to 150 µg/mL (≈ 41.8 to 501 µM); in experiment [3], 3.5 to 12.5 µg/mL (≈ 11.7 to 41.8 µM); in experiment [4], 12.5 to 150 µg/mL (≈ 41.8 to 501 µM); in experiment [6], 12.5 to 150 µg/mL (≈ 41.8 to 501 µM); in [8], 12.5 to 150 µg/mL (≈ 41.8 to 501 µM). In addition, the MIC in experiment [9], in experiment [10], in experiment [11] and in experiment [7] was 12.5 to 150 µg/mL (≈ 41.8 to 501 µM) each time.
In the case of `CCc1c(-c2ccc3sccc3c2)[nH]c(=O)c(C(=O)O)c1O` [Cpd 367, 6-(benzo[b]thiophen-5-yl)-5-ethyl-4-hydroxy-2-oxo-1,2-dihydropyridine-3-carboxylic acid], the MIC in experiment [1] is under 1 µg/mL; in experiment [2], 1 to 3.5 µg/mL (≈ 3.17 to 11.1 µM); in [3] it was 12.5 to 150 µg/mL (≈ 39.6 to 476 µM); in experiment [4], 3.5 to 12.5 µg/mL (≈ 11.1 to 39.6 µM); in [6], 12.5 to 150 µg/mL (≈ 39.6 to 476 µM); in experiment [8], 12.5 to 150 µg/mL (≈ 39.6 to 476 µM). Besides, the MIC in experiment [9] is 12.5 to 150 µg/mL (≈ 39.6 to 476 µM); in experiment [10], 3.5 to 12.5 µg/mL (≈ 11.1 to 39.6 µM); in experiment [11], 12.5 to 150 µg/mL (≈ 39.6 to 476 µM); in experiment [7], 12.5 to 150 µg/mL (≈ 39.6 to 476 µM).
